From patent publication US20140349970A1 (ABBVIE INC., priority 2009, published 2014)

target: T1, Syk catalytic domain (aa 356-635 with a C-terminal His-tag) (Homo sapiens, UniProt P43405); assay: In vitro Syk kinase activity measured by trFRET, Syk catalytic domain; assay type: biochemical; details: not given
T1 construct: His-tag (C); made in house
Summary of the method: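 Kinase reaction: 0.14 nM His-tagged catalytic domain, 0.2 μM biotin-TYR1 peptide, 0.001 mM ATP in 50 mM MOPSO pH 6.5 with MgCl2, MnCl2, DTT, BSA, vanadate, ~60 min at rt, then EDTA quench. Phosphoproduct detected by trFRET (Eu anti-pTyr antibody/streptavidin-APC, 665 nm emission); IC50 from signal in linear range.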

SMILES | IC50
COc1cnc2c(c1)c(-c1cc3c(ncc4cnn(C)c43)[nH]1)cn2C [AC.2.2] | < 0.1 µM
CCCNC(=O)c1cccc(-c2nc(C)n3c2cnc2[nH]ccc23)c1 [AC.1.4] | 0.1 to 1 µM
CC(=O)Nc1cccc(-c2nc(C3CCCCC3)n3c2cnc2[nH]ccc23)c1 [AC.3.3] | 0.1 to 1 µM
Cc1nc(-c2ccc(C3(CO)CC3)cc2)c2cnc3[nH]ccc3n12 [AC.1.36] | 0.1 to 1 µM
Cc1nc(-c2ccc(S(=O)(=O)N3CCN(C)CC3)cc2)c2cnc3[nH]ccc3n12 [AC.1.12] | 1 to 10 µM
Cc1nc(-c2cccc(S(C)(=O)=O)c2)c2cnc3[nH]ccc3n12 [AC.1.39] | 0.1 to 1 µM
Cc1nc(-c2ccc3c(c2)CCO3)c2cnc3[nH]ccc3n12 [AC.1.26] | 0.1 to 1 µM
O=S(=O)(NCCO)c1cccc(-c2nc(C3CCCCC3)n3c2cnc2[nH]ccc23)c1 [AC.3.21] | 0.1 to 1 µM
COc1ccc(-c2ncn3c2cnc2[nH]ccc23)cc1Cl [AC.4.9] | < 0.1 µM
NS(=O)(=O)c1ccc(-c2nc(C3CCCCC3)n3c2cnc2[nH]ccc23)cc1 [AC.3.15] | 0.1 to 1 µM
Cc1nc(-c2cnn(CC(C)(C)O)c2)c2cnc3[nH]ccc3n12 [AC.1.28] | 0.1 to 1 µM
COc1ccc(-c2nc(C)n3c2cnc2[nH]ccc23)cc1OC [AC.1.41] | < 0.1 µM
COc1cc(-c2ncn3c2cnc2[nH]ccc23)ccn1 [AC.4.3] | 0.1 to 1 µM
CN(C)C(=O)c1ccc(-c2nc(C3CCCCC3)n3c2cnc2[nH]ccc23)cc1 [AC.3.22] | 0.1 to 1 µM
Cc1nc(-c2ccc(CO)cc2)c2cnc3[nH]ccc3n12 [AC.1.34] | 0.1 to 1 µM
Cc1cc(-c2ncn3c2cnc2[nH]ccc23)ccn1 [AC.4.5] | 0.1 to 1 µM
Cc1cc(-c2nc(C)n3c2cnc2[nH]ccc23)ccc1N1CCOCC1 [AC.1.27] | < 0.1 µM
Cc1nc(-c2cccnc2)c2cnc3[nH]ccc3n12 [AC.1.22] | 1 to 10 µM
Cc1nc(-c2ccc(C(C)(C)O)nc2)c2cnc3[nH]ccc3n12 [AC.1.24] | 0.1 to 1 µM

Second part, the molecule after the results:

IC50 | SMILES
0.1 to 1 µM | COc1ccc(-c2nc(CN3CCNCC3)n3c2cnc2[nH]ccc23)cc1 [T.3.1.4]
0.1 to 1 µM | CC(C)(O)c1ccc(-c2nc([C@@H]3CCNC3)n3c2cnc2[nH]ccc23)cc1 [P.3.1.10]
< 0.1 µM | Cc1nc(-c2ccc(C(C)(C)O)s2)c2cnc3[nH]ccc3n12 [S.1.11]
0.1 to 1 µM | CS(=O)(=O)c1ccc(-c2nc(COCCN)n3c2cnc2[nH]ccc23)cc1 [T.4.1.1]
1 to 10 µM | COc1ccc(-c2ncn3c2cnc2[nH]cc(C4=CCNCC4)c23)cc1 [P.3.1.12]

same assay, conditions: Syk catalytic domain (aa 356-635), trFRET, 0.001 mM ATP

SMILES | IC50
CN(C)CC(=O)NCc1cccc(-c2cc3c(ncc4cnn(C)c43)[nH]2)c1 [J.1.1.1] | 0.1 to 1 µM
COc1ccc(-c2nc([C@H]3CCC[C@@H](NC(C)=O)C3)n3c2cnc2[nH]ccc23)cc1 [J.2.1.7] | 0.1 to 1 µM
Cn1cc(-c2cc3c(ncc4cnn(C)c43)[nH]2)c2cc(C(=O)NC(C)(C)CO)ccc21 [J.2.2.1] | < 0.1 µM
CN(C)C(=O)c1ccc2c(-c3cc4c(ncc5cnn(C)c54)[nH]3)cn(C)c2c1 [J.1.4.1] | < 0.1 µM
CC(=O)NCc1nc(-c2ccc(C(C)(C)O)cc2)c2cnc3[nH]ccc3n12 [J.2.1.8] | 0.1 to 1 µM
CC(C)(O)c1ccc(-c2nc(-c3cccnc3C#N)n3c2cnc2[nH]ccc23)cc1 [D.3.1] | < 0.1 µM
CC(C)(O)c1ccc(-c2nc(-c3ccccc3CN)n3c2cnc2[nH]ccc23)cc1 [Example 7, 2-(4-(1-(2-(Aminomethyl)phenyl)-6H-imidazo[1,5-a]pyrrolo[2,3-e]pyrazin-3-yl)phenyl)propan-2-ol] | 0.1 to 1 µM
Cn1cc(-c2cc3c(ncc4cnn(C)c43)[nH]2)c2cc(C(=O)NCC(C)(C)CO)ccc21 [J.2.2.2] | < 0.1 µM
CC(C)(O)c1ccc(-c2nc(-c3cccnc3)n3c2cnc2[nH]ccc23)cc1 [AC.6.1] | < 0.1 µM
Cc1nc(-c2ccc(C(C)(C)O)cc2)c2cnc3[nH]cc(Br)c3n12 [AY.1, 2-(4-(8-Bromo-1-methyl-6H-imidazo[1,5-a]pyrrolo[2,3-e]pyrazin-3-yl)phenyl)propan-2-ol] | < 0.1 µM
COc1ccc(-c2nc(C)n3c2cnc2[nH]ccc23)cc1C(N)=O [J.1.7.4] | 0.1 to 1 µM
CCCNC(=O)c1ccc(-c2nc(C)n3c2cnc2[nH]ccc23)cc1Cl [J.1.6.1] | 0.1 to 1 µM
Cn1cc(-c2cc3c(ncc4cnn(C)c43)[nH]2)c2ccc(C(=O)NCC(C)(C)CO)cc21 [J.1.4.2] | < 0.1 µM
CN(C)CCNC(=O)c1ccc2c(c1)c(-c1cc3c(ncc4cnn(C)c43)[nH]1)cn2C [J.1.8.2] | 0.1 to 1 µM
Cn1cc(-c2cc3c(ncc4cnn(C)c43)[nH]2)c2cc(C(=O)NCCO)ccc21 [J.1.8.7] | < 0.1 µM
CC(=O)N1CCC(O)(c2ccc(-c3nc(C)n4c3cnc3[nH]ccc34)cc2)CC1 [J.2.1.6] | < 0.1 µM
Cn1cc(-c2cc3c(ncc4cnn(C)c43)[nH]2)c2cc(C(=O)NS(C)(=O)=O)ccc21 [Example 8, 1-Methyl-3-(1-methyl-1,6-dihydropyrazolo[3,4-d]pyrrolo[2,3-b]pyridin-7-yl)-N-(methylsulfonyl)-1H-indole-5-carboxamide] | < 0.1 µM

More lines, now with the values ahead:

IC50 | SMILES
0.1 to 1 µM | COc1ccc2c(c1)c(-c1cc3c(ncc4cnn(C)c43)[nH]1)cn2C(C)C [N.1.81]
0.1 to 1 µM | CCc1c[nH]c2ncc3c(-c4ccc(C(=O)NC5CC5)cc4)nn(C)c3c12 [N.1.70]
< 0.1 µM | COCCNC(=O)Cn1cc(-c2cc3c(ncc4cnn(C)c43)[nH]2)c2cc(OC)ccc21 [N.1.28]
0.1 to 1 µM | CN1CCN(C(=O)CCO)C[C@@H]1c1nc(-c2ccc(C(C)(C)O)cc2)c2cnc3[nH]ccc3n12 [N.1.95]
< 0.1 µM | CNS(=O)(=O)c1cccc(-c2cc3c(ncc4cnn(C)c43)[nH]2)c1 [N.1.33]
0.1 to 1 µM | CS(=O)(=O)c1cccc(-c2cc3c(ncc4cnc(C(F)(F)F)n43)[nH]2)c1 [M.1.2]
1 to 10 µM | COc1ccc(-c2cc3c(ncc4c(C)ncn43)[nH]2)cc1 [M.1.23]
< 0.1 µM | COCCN(C)c1cnc2cnc3[nH]c(-c4cn(C)c5ccc(OC)cc45)cc3n12 [M.1.21]
1 to 10 µM | Cc1nc(-c2ccc(C(C)(C)O)cc2Cl)c2cnc3[nH]ccc3n12 [N.1.103]
0.1 to 1 µM | Cn1ccc2cc(-c3cc4c(ncc5cnn(C)c54)[nH]3)ccc21 [N.1.46]
1 to 10 µM | CCc1c[nH]c2ncc3c(-c4cc(OC)c(OC)c(OC)c4)nn(C)c3c12 [N.1.77]
< 0.1 µM | COc1ccc2c(c1)c(-c1cc3c(ncc4cnn(C)c43)[nH]1)cn2CC(O)CN(C)C (stereo not drawn) [N.1.29]
0.1 to 1 µM | CS(=O)(=O)c1cccc(-c2cc3c(ncc4cnc(CCCNC(=O)C(F)(F)F)n43)[nH]2)c1 [M.1.4]
1 to 10 µM | Cc1cc(C(C)(C)O)ccc1-c1nc(C)n2c1cnc1[nH]ccc12 [N.1.104]
1 to 10 µM | Cc1ccc(-c2nc(C)n3c2cnc2[nH]ccc23)c2cc[nH]c12 [N.1.57]
1 to 10 µM | COc1ccc2c(c1)c(-c1cc3c4c(cnc3[nH]1)CCN4C)cn2C [N.1.22]
0.1 to 1 µM | COc1ccc2c(c1)c(-c1cc3c(ncc4cnc(C(F)(F)F)n43)[nH]1)cn2C [L.1.1, 7-(5-Methoxy-1-methyl-1H-indol-3-yl)-1-(trifluoromethyl)-6H-imidazo[1,5-a]pyrrolo[2,3-e]pyrazine]
< 0.1 µM | Cn1cc(-c2cc3c(ncc4cnn(C)c43)[nH]2)c2cc(F)ccc21 [N.1.17]
1 to 10 µM | CCc1c[nH]c2ncc3c(-c4ccc(OC)cc4)nn(C)c3c12 [N.1.74]
< 0.1 µM | Cc1ccc2c(c1)c(-c1cc3c(ncc4cnn(C)c43)[nH]1)cn2C [N.1.111]

IC50 | SMILES
0.1 to 1 µM | COCCCNC(=O)c1cccc(-c2cc3c(ncc4cnn(C)c43)[nH]2)c1 [N.1.7]
0.1 to 1 µM | CCc1c[nH]c2ncc3c(-c4ccc(CO)cc4)nn(C)c3c12 [N.1.71]
1 to 10 µM | Cn1ncc2cnc3[nH]c(-c4cccc5ncccc45)cc3c21 [N.2.6]
< 0.1 µM | COc1ccc2c(c1)c(-c1cc3c(ncc4cnc([C@@H]5CCNC5)n43)[nH]1)cn2C [T.1.1.2, (R)-7-(5-Methoxy-1-methyl-1H-indol-3-yl)-1-(pyrrolidin-3-yl)-6H-imidazo[1,5-a]pyrrolo[2,3-e]pyrazine diacetate]
1 to 10 µM | CN1CCN(Cc2nc(-c3ccc(C(C)(C)O)cc3)c3cnc4[nH]ccc4n23)CC1 [N.1.96]
0.1 to 1 µM | COc1ccc(-c2cc3c(ncc4c(C)nc(C)n43)[nH]2)cc1 [M.1.22]
1 to 10 µM | CCCNC(=O)c1cccc(-c2[nH]c3ncc4cnn(C)c4c3c2CC)c1 [N.1.39]
1 to 10 µM | COc1ccc(-c2nc(C3CCN(C)CC3)n3c2cnc2[nH]ccc23)cc1 [N.1.86]
0.1 to 1 µM | Cn1ncc2cnc3[nH]c(-c4cccc(CC(=O)NCCN5CCOCC5)c4)cc3c21 [N.1.12]
1 to 10 µM | COCCC(=O)N1CCCC(c2nc(-c3ccc(S(C)(=O)=O)cc3)c3cnc4[nH]ccc4n23)C1 (stereo not drawn) [N.1.63]
< 0.1 µM | Cn1ncc2cnc3[nH]c(-c4ccc(OCCN5CCOCC5)cc4)cc3c21 [N.2.4]
1 to 10 µM | CN1CCc2cnc3[nH]c(-c4ccc(C(C)(C)O)cc4)cc3c21 [N.1.23]
< 0.1 µM | COc1ccc(-c2cc3c(ncc4cnn(C)c43)[nH]2)cc1 [N.1.14]
0.1 to 1 µM | CS(=O)(=O)c1ccc(-c2nc(CC3CNCCO3)n3c2cnc2[nH]ccc23)cc1 (stereo not drawn) [N.1.94]
< 0.1 µM | COc1ccc2c(c1)c(-c1cc3c(ncc4cnc(CC(F)(F)F)n43)[nH]1)cn2C [M.1.1]
1 to 10 µM | Cn1ncc2cnc3[nH]c(-c4cnc5n4CCC5)cc3c21 [N.1.27]
0.1 to 1 µM | CS(=O)(=O)c1cccc(-c2cc3c(ncc4cnc(C5CCCOC5)n43)[nH]2)c1 (stereo not drawn) [M.1.5]
1 to 10 µM | CCc1c[nH]c2ncc3c(-c4ccc(C(C)(C)O)cc4)nn(C)c3c12 [N.1.60]
< 0.1 µM | COc1ccc(-c2nc(C)n3c2cnc2[nH]ccc23)cc1 [N.1.54]
0.1 to 1 µM | COc1ccc2c(c1)c(-c1cc3c(ncc4cnn(C)c43)[nH]1)cn2CCN(C)C [N.2.13]
